Test results as given in patent US10441669B2, “Multifunctional chelators, complexes, and compositions thereof, and methods of using same” (ILLINOIS INSTITUTE OF TECHNOLOGY, priority 2013, dated 2019).
Read-outs that look alike come from different tables or passages of the source.

Columns and labels:
[1] = In vitro serum stability of 90Y-radiolabeled 5p-C-NETA and NETA-RGD; conditions: 37° C., pH 7, 14 days, ITLC
Protocol: (§3) In vitro serum stability of 5p-C-NETA and NETA-RGD conjugates radiolabeled with ^90Y or ^177Lu was performed to determine if NETA chelators or NETA-RGD conjugates radiolabeled with ^90Y or ^177Lu remained stable without loss of ^90Y or ^177Lu in human serum. This was assessed by measuring the transfer of ^90Y or ^177Lu from the complex to serum proteins over the course of 14 days using ITLC. ^90Y or ^177Lu-radiolabeled complexes was prepared from the reactions of the bifunctional chelators with ^90Y or ^177Lu at room temperature and directly used for serum stability studies (37° C., pH 7).

[2] = In vitro serum stability of 177Lu-radiolabeled 5p-C-NETA and NETA-RGD; conditions: 37° C., pH 7, 14 days, ITLC
Protocol: as §3

[3] = Stability and radioactivity level of 64Cu complexes in mice; format: in vivo; conditions: 64Cu complex
[4] = In vitro serum stability of 64Cu-radiolabeled complexes of chelators A-F; format: in vitro ADME; conditions: human serum, over 2 days; listed as 64Cu-chelator E
Protocol: In vitro serum stability of the radiolabeled complexes was performed to determine if the chelators radiolabeled with ^64Cu remained stable without loss of the radioactivity in human serum. This was assessed by measuring the transfer of ^64Cu from the complex to human serum proteins using ITLC (20 mM EDTA in 0.15M NH4OAc, Table 2). ^64Cu-radiolabeled chelators were readily prepared from the reactions of the chelators with ^64Cu at room temperature. Essentially no unbound ^64Cu was detected in the reaction mixture at 2 h time point after the reaction at room temperature as determined by ITLC. The ^64Cu-radiolabeled chelators were directly used for serum stability studies (pH 7, 37° C.) without further purification. All ^64Cu-radiolabeled complexes remained intact in human serum for 2 days as evidenced by ITLC analysis (Supporting Information). […] A tiny amount of ^64Cu (<0.3%) was detected from other ^64Cu-complexes of chelators B, D-F.
The freshly prepared radiolabeled complexes were directly used for serum stability studies without further purification. ^64Cu-radiolabeled complex (85 μCi, 10 μL) was added to human serum (90 μL) in a microcentrifuge tube. The stability of ^64Cu-radiolabeled complexes in human serum was evaluated at 37° C. for 2 days. A solution of the radiolabeled complex in serum was withdrawn at the designated time points and evaluated by ITLC as described above.

[5] = EDTA challenge of 64Cu-radiolabeled complexes of chelators A-F; format: physicochemical; conditions: EDTA 100-fold molar excess; for Bound complex (%): 64Cu complex, 37° C.; for 64Cu activity dissociated from the complex / transferred to EDTA: 24 h time point
Protocol: ^64Cu-radiolabeled complexes were further evaluated for complex stability based on EDTA challenge. ^64Cu-radiolabeled complexes were freshly prepared and treated with a solution of EDTA at a 100-fold molar excess, and the resulting solution (pH 5.5) was incubated at 37° C. for 24 h. […] Among the complexes tested, ^64Cu-radiolabeled pentadentate chelator B was least tolerant of EDTA treated, and most of ^64Cu was dissociated from the complex (˜80%) at 24 h time point. ^64Cu-radiolabeled chelator C containing the carbonyl donor group was found dissociated rapidly in the presence of the excess EDTA, and 50% of the activity was transchelated by EDTA at 1 h time point. ^64Cu-radiolabeled chelators D and F with the respective hydroxyl and thiophenyl donor group were slower in dissociation than ^64Cu-radiolabeled chelators B and C and released >45% of ^64Cu at 24 h time point. Dissociation of the activity from the ^64Cu-radiolabeled chelators was also measured using radio-HPLC at 25 h time point (FIG. 5). The peak related to ^64Cu-EDTA (tR=2.5 min) was clearly separated from bound ^64Cu complex of the chelators. ^64Cu-radiolabeled complex of polar chelators E and F have the respective retention time at […] and 6.2 min, while other ^64Cu-radiolabeled complexes have similar retention time (tR=7˜8 min). The ^64Cu-radiolabeled chelators C and D gave a small peak (tR=˜3 min and tR=˜7 min, respectively).
^64Cu-radiolabeled complexes were prepared by reaction of each chelator (20 μg) with ^64Cu (60 μCi) in 0.25M NH4OAc buffer (pH 5.5) for 2 h at room temperature. The radiolabeled complexes were prepared as described above and directly used for the experiments. ^64Cu-radiolabeled complex was mixed with EDTA at a 100-fold molar excess. The resulting mixture was incubated for 24 h at 37° C. The stability of ^64Cu-radiolabeled complexes in the solution was evaluated using ITLC (20 mM EDTA in 0.15M NH4OAc). A solution of the radiolabeled complex in serum (3˜20 μL) was withdrawn at the designated time points and evaluated by ITLC as described above. Stability of the complexes was also evaluated at 25 h time point by HPLC (solvent A: 0.1% TFA in H2O, solvent B: 0.1% TFA in CH3CN, 0-100% B/15 min, flow rate: 1 mL/min). ^64Cu-EDTA complex was eluted early (tR=˜2.5 min), while ^64Cu-radiolabeled complexes of chelators A-D, E, and F have the respective retention time (tR=7˜8 min, tR=4.6 min, and tR=6.2 min).

[6] = pH 7
Protocol: as §3

[7] = set-up: species or system mice; conditions: mouse, in vivo
[8] = pH 7; remark: listed apart in the source
Protocol: as §3

[9] = In vitro serum stability of 177Lu-radiolabeled 3p-C complexes; format: in vitro ADME; conditions: human serum, 37° C., in 72 h
Protocol: (§1) A significant amount of the radioactivity from both ^90Y-3p-C-DEPA (4) and ^177Lu-3p-C-DEPA (4) was transchelated to serum (25% and 40% in 72 h, respectively). As expected, both ^90Y and ^177Lu complexes of 3p-C-NOTA […] were not stable in serum, and ˜80% of ^90Y and ˜36% of ^177Lu was released from the complexes on day 7. […] However, ^90Y-3p-C-NE3TA underwent rapid dissociation, losing ˜25% of ^90Y to serum in 3 days.
(§2) Human serum was purchased from Gemini Bioproducts (#100110). ^90Y- or ^177Lu-radiolabeled complexes (0.25M NH40OAc, pH 5.5) were prepared from the reaction of chelators with ^90Y or ^177Lu at room temperature or 37° C. Completion of radiolabeling was monitored by ITLC eluted, and the freshly prepared radiolabeled complexes were used for serum stability without further purification. ^90Y-3p-C-DETA, ^90Y-3p-C-NE3TA and ^90Y-3-C-NOTA were prepared by a reaction of 3p-C-DETA (1), 3p-C-NE3TA (2) and 3p-C-NOTA (3) (50 μg) with ^90Y (150 μCi) in 0.25 M NH4OAc buffer (pH 7.0). […] The stability of the radiolabeled complexes in human serum was evaluated at 37° C. over 14 days. The serum stability of the radiolabeled complexes was assessed by measuring the transfer of the radionuclide from each complex to serum proteins using ITLC eluted with CH3CN/H2O (3:2 v/v) or 20 mM EDTA in 0.15 M NH4OAc. […]

[10] = In vitro serum stability of 90Y-radiolabeled 3p-C complexes; format: in vitro ADME; conditions: human serum, 37° C., in 72 h (3 days)
Protocol: as §1, §2

SMILES	stability in mice and radioactivity level in blood and normal organs [3]	Bound complex (%) ([5]; pH 5.5, ITLC, 0 h)	Bound complex (%) ([5]; pH 5.5, ITLC, 1 h)	Bound complex (%) ([5]; pH 5.5, ITLC, 4 h)	Bound complex (%) ([5]; pH 5.5, ITLC, 19 h)	Bound complex (%) ([5]; pH 5.5, ITLC, 24 h)	Bound complex (%) ([5]; pH 5.5, radio-HPLC, 25 h)	64Cu activity dissociated from the complex / transferred to EDTA [5] [%]	other results
O=C(O)CN1CCN(CC(=O)O)CCN(CC(CCCCCc2ccc([N+](=O)[O-])cc2)N(CC(=O)O)CC(=O)O)CC1 (stereo not drawn) [Chelator 5p-C-NETA, 2-({1-[4,7-bis(carboxymethyl)-1,4,7-triazonan-1-yl]-7-(4-nitrophenyl)heptan-2-yl}(carboxy-methyl)amino)acetic acid]	–	–	–	–	–	–	–	–	stability of 90Y complex in human serum [1]: remained stable in human serum without releasing the radioactivity into the serum; stability of 177Lu complex in human serum [2]: remained stable in human serum without releasing the radioactivity into the serum
O=C(O)CN1CCN(CC(=O)O)CCN(Cc2ccccn2)CC1 [Chelator E, 2-[4-(carboxymethyl)-7-(pyridin-2-ylmethyl)-1,4,7-triazonan-1-yl]acetic acid]	stable in mice and displayed low radioactivity level in the blood and the normal organs	99.7 ± 0.1	98.2 ± 0.3	92.6 ± 0.3	93.6 ± 0.1	94.3 ± 0.6	93.1 ± 0.1	~5	64Cu dissociated/released from the complex in serum [4]: No measurable radioactivity was released
O=C(O)CN1CCN(CC(=O)O)CCN(C(CCc2ccc([N+](=O)[O-])cc2)C(=O)O)CC1 (stereo not drawn) [Chelator A, 2-[4,7-bis(carboxymethyl)-1,4,7-triazonan-1-yl]-4-(4-nitrophenyl)butanoic acid, reference compound]	stable in mice and displayed low radioactivity level in the blood and the normal organs	99.9 ± 0.1	98.6 ± 0.6	96.8 ± 0.0	95.3 ± 0.5	94.9 ± 0.0	90.3 ± 0.3	~5	–
N=C(N)NCCC[C@@H]1NC(=O)[C@H](CCCCNC(=S)Nc2ccc(CCCCCC(CN3CCN(CC(=O)O)CCN(CC(=O)O)CC3)N(CC(=O)O)CC(=O)O)cc2)NC(=O)[C@@H](Cc2ccc(O)cc2)NC(=O)[C@H](CC(=O)O)NC(=O)CNC1=O (stereo partly drawn) [5p-C-NETA-RGD]	–	–	–	–	–	–	–	–	stability of 90Y complex in human serum [6]: remained quite stable in human serum over 2 weeks period; tumor targeting and biodistribution profile [7]: target tumors in mice and produced a favorable biodistribution profile with rapid blood clearance and low organ uptake; stability of 177Lu complex in human serum [8]: remained quite stable in human serum over 2 weeks period
O=C(O)CN1CCN(CC(=O)O)CCN(CC(CCCc2ccc([N+](=O)[O-])cc2)N(CC(=O)O)CC(=O)O)CCN(CC(=O)O)CC1 (stereo not drawn) [Chelator 3p-C-DEPA]	–	–	–	–	–	–	–	–	177Lu transchelated to serum [9]: 40%; 90Y transchelated/lost to serum [10]: 25%
